Assay results published in patent US20240294572A1, “Antimicrobial Peptides” (priority 2021, published 2024).
Values after ≈ are worked out from the molar mass of the structure shown. No end group written: not given here.

Tests used:
[1] = test system: human red blood cells (hRBCs); details: 50% hemolysis; LL-37 value taken from Narayana, et al.; cited from earlier work
P. aeruginosa PAO1 = details: LL-37 value taken from Narayana, et al.; cited from earlier work
[2] = test system: Klebsiella pneumonia ATCC 13883; details: LL-37 value taken from Narayana, et al.; cited from earlier work
E. coli ATCC 25922 [3] = details: LL-37 value taken from Narayana, et al.; cited from earlier work
E. coli ATCC 25922 [4] = type: cell-based
In short: (§1)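 Broth microdilution after CLSI M07-A10, modified: 2-fold peptide dilutions plus log-phase bacteria diluted to 0.001 OD, incubated overnight at 37° C, absorbance read at 630 nm. Medium effects probed with varied pH, NaCl or human serum in TSB (control pH 7.4), with 10%, 50%, 100% TSB, and with MHB.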

S. aureus USA300 LAC = type: cell-based; details: USA300
In short: as §1

[5] = biological target: T1, Apolipoprotein A-II (P09813) (Mus musculus, UniProt P09813); test: Mass spectrometry of mouse plasma proteins bound to bead-immobilized peptide; type: binding; details: peptide on beads, 5% mouse plasma, 18 hours
T1 construct: incubated with 5% mouse plasma; from tissue; host or cells: mouse plasma (5%)
Experimental: (§2) Dynabeads M-370 amine (2×10^9 beads/mL, 50 μL; Thermo Fisher Scientific) were washed 3 times in sterile PBS (1 mL; GIBCO) and reacted with a bifunctional SM(PEG)4 cross-linker (5 mg/mL in DMSO) containing N-hydroxysuccinimide (NHS) ester and maleimide functional groups. A stable covalent bond between the amino group of beads and the NHS ester of the cross-linker was formed in PBS at pH 7.2 at room temperature for 24 hours with shaking at 80 rpm. The beads were then washed six times with PBS to remove nonreacted cross-linker. Next, peptide C10-KR8 (with a cysteine at the N-terminus) at 5 mg/mL was reacted with the free maleimide group in PBS for 24 hours at room temperature with shaking at 80 rpm. Another round of washing was conducted to remove the nonreacted peptides. Both the L-and D-forms of the peptide were coupled in the same manner. A portion of the beads without peptide coupling was saved as a control.
(§3) For serum binding experiments, the beads were resuspended in 500 μL of PBS; 200-μL aliquots of the coated and control dynabead were incubated with 5% mouse plasma for 18 hours at 37° C. After binding, the beads were washed six times with PBS to remove unbound proteins. Finally, the beads were suspended in 50 μL of PBS for mass spectrophotometric analysis to identify peptide-binding partners.
(§4) The samples were reduced by 10 mM dithiothreitol (DTT) and incubated for 30 minutes at 56° C. and back to room temperature. A final concentration of 50 mM iodoacetamide was added to alkylate free cysteines followed by further incubation for 20 min in the dark. Bound proteins were enzymatically digested by trypsin (4 μL of 0.5 μg/mL) overnight. A 60 […] portion was transferred to a new Eppendorf® tube and dried for 2 hours. The samples were then dissolved in 20 μL of 2% acetonitrile with 0.1% formic acid before being loaded to Q-tip columns (Pepclean, C18 spin column). Column was activated by pipetting in and out (4× times), 10 μL of 70% acetonitrile with 0.1% formic acid, and equilibrating with the same volume of 2% acetonitrile with 0.1% formic acid. Binding of the samples was done by mixing more than 10 × times, followed by washing in the same buffer (2% acetonitrile with 0.1% formic acid). The bound peptides were then eluted with 20 μL of 70% acetonitrile with 0.1% formic acid. Samples were subjected to LC-MS analysis after being suspended in the desired buffer.
(§5) Extracted peptides were resuspended in 2% acetonitrile (ACN) and 0.1% formic acid (FA) and loaded onto trap column Acclaim™ PepMap™ 100 75 μm×2 cm C18 LC Columns (Thermo Scientific) at a flow rate of 4 μL/minute. These were then separated with a Thermo RSLC UltiMate™ 3000 on a Thermo Easy-Spray PepMap™ M RSLC C18 75 μm×50 cm C-18 2 μm column (Thermo Scientific) with a step gradient of 4-25% solvent B (0.1% FA in 80% ACN) from 10 to 37 minutes and 25-45% solvent B for 37-46 minutes at 300 nL/min and 50° C. with a 70 minute total run time. Eluted peptides were analyzed by a Thermo Orbitrap Fusion™ Lumos™ Tribrid™ (Thermo Scientific) mass spectrometer in a data dependent acquisition mode. A survey full scan MS (from m/z 350-1800) was acquired in the orbitrap with a resolution of 120000. The AGC target for MS1 was set as 4×10^5 and the ion filling time set as 100 ms. The most intense ions with charge state 2-6 were isolated in 3 second cycle and fragmented using HCD fragmentation with 40% normalized collision energy and detected at a mass resolution of 30000 at 200 m/z. The AGC target for MS/MS was set as 5×10^4 and ion filling time set 60 ms dynamic exclusion was set for 30 seconds with a 10 ppm mass window. Protein identification was performed by searching MS/MS data against the Swiss-Prot mouse protein database. The search was set up for full tryptic peptides with a maximum of two missed cleavage sites. Acetylation of protein N-terminus and oxidized methionine were included as variable modifications, and carbamidomethylation of cysteine was set as fixed modification. […]

[6] = biological target: T2, Apolipoprotein C-I (P34928) (Mus musculus, UniProt P34928); test: as above; type: binding; details: peptide on beads, 5% mouse plasma, 18 hours
T2 construct: incubated with 5% mouse plasma; from tissue; host or cells: mouse plasma (5%)
T2 sequence (P34928 27-88): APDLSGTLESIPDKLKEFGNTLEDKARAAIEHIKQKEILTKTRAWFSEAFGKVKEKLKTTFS
Experimental: as §2, §3, §4, §5

[7] = biological target: T3, Apolipoprotein A-IV (P06728) (Mus musculus, UniProt P06728); test: as above; type: binding; details: peptide on beads, 5% mouse plasma, 18 hours
T3 construct: incubated with 5% mouse plasma; from tissue; host or cells: mouse plasma (5%)
T3 sequence (P06728 21-395): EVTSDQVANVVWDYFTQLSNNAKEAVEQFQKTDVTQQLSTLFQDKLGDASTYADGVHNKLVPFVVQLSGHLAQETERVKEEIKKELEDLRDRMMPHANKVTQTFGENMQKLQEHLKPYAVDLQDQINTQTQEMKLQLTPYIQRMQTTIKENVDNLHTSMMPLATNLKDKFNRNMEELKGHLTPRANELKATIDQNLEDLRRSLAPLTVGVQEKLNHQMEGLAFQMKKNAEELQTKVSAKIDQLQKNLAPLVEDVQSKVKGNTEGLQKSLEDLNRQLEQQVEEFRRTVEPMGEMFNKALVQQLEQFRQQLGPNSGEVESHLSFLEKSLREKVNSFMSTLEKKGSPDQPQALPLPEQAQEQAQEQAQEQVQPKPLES
Experimental: as §2, §3, §4, §5

[8] = biological target: T4, Apolipoprotein A-I (Q00623) (Mus musculus, UniProt Q00623); test: as above; type: binding; details: peptide on beads, 5% mouse plasma, 18 hours
T4 construct: incubated with 5% mouse plasma; from tissue; host or cells: mouse plasma (5%)
T4 sequence (Q00623 19-264): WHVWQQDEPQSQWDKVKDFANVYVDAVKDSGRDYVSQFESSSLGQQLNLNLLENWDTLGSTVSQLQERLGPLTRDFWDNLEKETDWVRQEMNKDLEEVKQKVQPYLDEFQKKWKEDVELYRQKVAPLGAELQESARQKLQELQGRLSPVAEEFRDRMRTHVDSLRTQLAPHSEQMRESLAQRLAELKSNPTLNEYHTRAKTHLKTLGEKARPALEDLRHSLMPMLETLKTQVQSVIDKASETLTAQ
Experimental: as §2, §3, §4, §5

[9] = biological target: T5, Apolipoprotein C-III (P33622) (Mus musculus, UniProt P33622); test: as above; type: binding; details: peptide on beads, 5% mouse plasma, 18 hours
T5 construct: incubated with 5% mouse plasma; from tissue; host or cells: mouse plasma (5%)
T5 sequence (P33622 21-99): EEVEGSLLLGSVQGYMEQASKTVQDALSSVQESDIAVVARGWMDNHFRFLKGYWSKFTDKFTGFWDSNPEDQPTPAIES
Experimental: as §2, §3, §4, §5

Serum albumin (P07724) = biological target: T6, Serum albumin (P07724) (Mus musculus, UniProt P07724); test: as above; type: binding; details: peptide on beads, 5% mouse plasma, 18 hours
T6 construct: incubated with 5% mouse plasma; from tissue; host or cells: mouse plasma (5%)
Experimental: as §2, §3, §4, §5

[10] = biological target: T7, Apolipoprotein E (P08226) (Mus musculus, UniProt P08226); test: as above; type: binding; details: peptide on beads, 5% mouse plasma, 18 hours
T7 construct: incubated with 5% mouse plasma; from tissue; host or cells: mouse plasma (5%)
T7 sequence (P08226 19-311): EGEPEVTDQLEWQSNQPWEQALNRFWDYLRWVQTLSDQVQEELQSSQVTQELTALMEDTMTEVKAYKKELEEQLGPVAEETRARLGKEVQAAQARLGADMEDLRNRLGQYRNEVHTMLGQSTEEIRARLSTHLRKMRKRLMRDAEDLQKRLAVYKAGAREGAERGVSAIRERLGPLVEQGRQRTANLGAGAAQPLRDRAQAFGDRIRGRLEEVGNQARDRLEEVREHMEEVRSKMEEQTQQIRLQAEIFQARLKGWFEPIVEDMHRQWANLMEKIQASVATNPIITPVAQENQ
Experimental: as §2, §3, §4, §5

T1 sequence (P09813 19-102): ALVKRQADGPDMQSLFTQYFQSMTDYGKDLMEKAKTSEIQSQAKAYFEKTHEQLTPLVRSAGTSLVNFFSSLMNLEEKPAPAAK
T6 sequence (P07724 25-608): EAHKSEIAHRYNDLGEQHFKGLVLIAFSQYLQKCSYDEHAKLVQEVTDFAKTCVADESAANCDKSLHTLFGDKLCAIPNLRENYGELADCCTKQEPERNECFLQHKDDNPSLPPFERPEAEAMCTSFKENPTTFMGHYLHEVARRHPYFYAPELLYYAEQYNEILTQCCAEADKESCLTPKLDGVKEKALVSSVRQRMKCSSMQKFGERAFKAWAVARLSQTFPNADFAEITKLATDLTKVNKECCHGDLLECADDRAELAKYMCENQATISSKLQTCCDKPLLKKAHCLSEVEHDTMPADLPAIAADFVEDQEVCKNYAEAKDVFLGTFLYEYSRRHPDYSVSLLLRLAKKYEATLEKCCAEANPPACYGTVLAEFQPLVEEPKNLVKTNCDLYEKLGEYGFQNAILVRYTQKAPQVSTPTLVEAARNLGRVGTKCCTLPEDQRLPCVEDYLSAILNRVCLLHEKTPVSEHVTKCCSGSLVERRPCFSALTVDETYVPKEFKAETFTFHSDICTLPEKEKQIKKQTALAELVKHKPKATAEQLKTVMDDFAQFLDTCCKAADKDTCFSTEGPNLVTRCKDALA

## CC[C@H](C)[C@H](NC(=O)[C@H](CCCCN)NC(=O)[C@H](CCC(=O)O)NC(=O)[C@H](CCCCN)NC(=O)[C@H](CO)NC(=O)[C@H](CCCCN)NC(=O)[C@H](CCCNC(=N)N)NC(=O)[C@H](Cc1ccccc1)NC(=O)[C@H](Cc1ccccc1)NC(=O)[C@H](CC(=O)O)NC(=O)CNC(=O)[C@H](CC(C)C)NC(=O)[C@@H](N)CC(C)C)C(=O)NCC(=O)N[C@@H](CCCCN)C(=O)N[C@@H](CCC(=O)O)C(=O)N[C@@H](Cc1ccccc1)C(=O)N[C@@H](CCCCN)C(=O)N[C@@H](CCCNC(=N)N)C(=O)N[C@H](C(=O)N[C@H](C(=O)N[C@@H](CCC(N)=O)C(=O)N[C@@H](CCCNC(=N)N)C(=O)N[C@H](C(=O)N[C@@H](CCCCN)C(=O)N[C@@H](CC(=O)O)C(=O)N[C@@H](Cc1ccccc1)C(=O)N[C@@H](CC(C)C)C(=O)N[C@@H](CCCNC(=N)N)C(=O)N[C@@H](CC(N)=O)C(=O)N[C@@H](CC(C)C)C(=O)N[C@H](C(=O)N1CCC[C@H]1C(=O)N[C@@H](CCCNC(=N)N)C(=O)N[C@H](C(=O)N[C@@H](CCC(=O)O)C(=O)N[C@@H](CO)C(N)=O)[C@@H](C)O)C(C)C)[C@@H](C)CC)C(C)C)[C@@H](C)CC [LL-37, reference compound]
[1]
  HC50: 170 µM
P. aeruginosa PAO1
  MIC (μM) PA: >50 µM
[2]
  MIC (μM) KP: 6.2 µM (≈ 27.9 µg/mL)
E. coli ATCC 25922 [3]
  MIC (μM) EC: 3.1 to 6.2 µM
E. coli ATCC 25922 [4]
  Minimal inhibitory concentration against E. coli, 10% TSB: 1.6 µM (≈ 7.19 µg/mL)
  Minimal inhibitory concentration against E. coli, 50% TSB: 6.2 µM (≈ 27.9 µg/mL)
  Minimal inhibitory concentration against E. coli, 100% MHB: 6.2 µM (≈ 27.9 µg/mL)
  Minimal inhibitory concentration against E. coli, 100% TSB: 6.25 to 12.5 µM
S. aureus USA300 LAC
  Minimal inhibitory concentration against S. aureus, 10% TSB: 50 µM (≈ 225 µg/mL)
  Minimal inhibitory concentration against S. aureus, 50% TSB: > 50 µM
  Minimal inhibitory concentration against S. aureus, 100% MHB: >50 µM
  Minimal inhibitory concentration against S. aureus, 100% TSB: > 50 µM

## C10-KR8 + linker: C10-KR8 with a cysteine, covalently attached via SM(PEG)4 cross-linker to Dynabeads M-370 amine (CKRIWQRIK; not fully specified (residue 1, N-terminus, C-terminus); also: added N-terminal Cys coupled via SM(PEG)4 to Dynabeads M-370 amine)
[5]
  Intensity of bound Apolipoprotein A-II: 3.65E+05
[6]
  Intensity of bound Apolipoprotein C-I: 4.35E+08
[7]
  Intensity of bound Apolipoprotein A-IV: 3.21E+08
[8]
  Intensity of bound Apolipoprotein A-I: 4.29E+09
[9]
  Intensity of bound Apolipoprotein C-III: 2.02E+08
Serum albumin (P07724)
  Intensity of bound Serum albumin: 3.72E+10
[10]
  Intensity of bound Apolipoprotein E: 1.68E+07
